Data published in US7674831B2, “Heterocyclic compounds as sweetener enhancers” (Redpoint Bio Corporation, priority 2006, dated 2010).

Experiments:
Format in all cases: cell-based
human TRPM5 [1] = molecular target: T1, human TRPM5 (Homo sapiens, UniProt Q9NZQ8); assay: TRPM5 membrane potential dye FLIPR assay in hTRPM5-HEK293 cells, ATP stimulated; settings: for inhibition at 10 µM: 10 μM compound, 3 μM ATP, read-out: TRPM5 Activity (percent inhibition; enhancement is negative inhibition)
T1 construct: expressed in transfected cells
T1 sequence (Q9NZQ8 1-1165): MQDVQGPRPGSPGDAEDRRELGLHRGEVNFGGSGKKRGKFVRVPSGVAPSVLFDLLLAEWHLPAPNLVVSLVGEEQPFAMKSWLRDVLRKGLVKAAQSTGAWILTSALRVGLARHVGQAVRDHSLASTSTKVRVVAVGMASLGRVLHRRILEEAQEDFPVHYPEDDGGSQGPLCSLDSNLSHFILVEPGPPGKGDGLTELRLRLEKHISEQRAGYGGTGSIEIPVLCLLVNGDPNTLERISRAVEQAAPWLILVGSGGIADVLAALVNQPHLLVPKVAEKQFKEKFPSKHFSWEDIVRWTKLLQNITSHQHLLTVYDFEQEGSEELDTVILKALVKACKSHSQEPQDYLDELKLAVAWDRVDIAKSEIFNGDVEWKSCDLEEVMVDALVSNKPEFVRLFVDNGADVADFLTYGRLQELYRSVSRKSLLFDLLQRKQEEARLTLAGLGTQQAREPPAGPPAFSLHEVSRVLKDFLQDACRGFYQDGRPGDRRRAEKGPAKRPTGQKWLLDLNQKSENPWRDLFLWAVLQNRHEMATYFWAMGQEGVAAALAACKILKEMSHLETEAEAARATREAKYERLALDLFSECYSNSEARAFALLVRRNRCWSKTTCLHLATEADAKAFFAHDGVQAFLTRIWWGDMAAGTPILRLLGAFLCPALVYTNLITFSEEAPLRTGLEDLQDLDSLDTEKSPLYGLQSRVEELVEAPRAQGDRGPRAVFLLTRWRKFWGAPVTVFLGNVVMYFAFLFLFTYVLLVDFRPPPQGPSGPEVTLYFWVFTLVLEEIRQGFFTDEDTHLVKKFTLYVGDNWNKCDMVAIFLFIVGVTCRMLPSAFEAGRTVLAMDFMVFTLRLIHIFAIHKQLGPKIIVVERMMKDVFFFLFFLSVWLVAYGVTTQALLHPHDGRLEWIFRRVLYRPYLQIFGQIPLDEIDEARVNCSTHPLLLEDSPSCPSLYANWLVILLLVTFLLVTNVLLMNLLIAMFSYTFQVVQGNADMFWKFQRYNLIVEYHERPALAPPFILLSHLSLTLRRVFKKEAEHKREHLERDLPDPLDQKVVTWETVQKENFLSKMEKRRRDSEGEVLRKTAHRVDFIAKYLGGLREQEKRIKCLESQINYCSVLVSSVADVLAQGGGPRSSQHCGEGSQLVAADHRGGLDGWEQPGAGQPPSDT
Procedure: The activity of human TRPM5 ion channel was measured in live cells on a fluorescent imaging plate reader (FLIPR). The basis of the assay (shown in FIG. 1) is the calcium-dependent activation of the ion channel which occurs via by activation of a G-protein coupled receptor (GPCR). GPCR activation by an appropriate agonist causes a transient increase in […] Ca^2+ ion concentration which in turn causes the ion channel to open, letting in Na^+ ions. This influx causes a change in the membrane potential of the cell which can be monitored as a change in the fluorescent signal from voltage-dependent (membrane potential) fluorescent dyes.
For the screening assay, the human TRPM5 gene was cloned, put into HEK293 cells, and a stable, high expression clone was used for screening. Cells were grown in standard media at 37° C. The day before screening, the cells were removed from flasks and added to 384 well clear bottom plates (8K cells in 20 μL/well). On the assay day, 20 μL of membrane potential dye (Part No. R8123, Molecular Devices Corp.) was added to the cells and dye was allowed to be taken up, i.e., load, into the cells for 1 hr at 37° C. […] The assay was started by addition of 10 μL of solution from the compound plate into the cell plate. During this process, continuous fluorescent recordings were made simultaneously for all wells. After addition of the compound solution, the tips were automatically washed and a stimulation solution of 3 μM ATP to activate TRPM5 (an agonist for an endogenous purinurgic GPCR), was added to all wells of the cell plate. The height of the response was calculated and percent inhibition or enhancement values, versus negative control wells, was calculated for the test samples. Exemplary results are shown in the upper left graph of FIG. 3.

[2] = tested on: membrane potential response (non-specific ion channel blockers or enhancers); assay: KCl counterscreen (membrane potential response, 10 mM KCl instead of ATP); settings: Homo sapiens, 10 μM compound, read-out: KCl Counterscreen (percent inhibition)
Procedure: (§1) Two counterscreen assays were run on separate cell plates utilizing the same cells as described above. In the calcium counterscreen, the cells were loaded with a calcium sensitive dye (Calcium3 Dye, Part no. 8090, Molecular Devices Corp.) and stimulated by ATP to check for compounds that block the GPCR-mediated calcium activation step. Exemplary results of this assay are shown in the lower left graph of FIG. 3. In the KCl counterscreen, cells are stimulated with 10 mM KCl instead of ATP to check for compounds that inhibit the membrane potential response by virtue of being non-specific ion channel blockers or enhancers.

[3] = tested on: GPCR-mediated calcium activation step; assay: Calcium counterscreen (calcium sensitive dye, ATP stimulated); settings: Homo sapiens, 10 μM compound, read-out: Calcium Counterscreen (percent inhibition)
Procedure: as §1

human TRPM5 [4] = molecular target: T1, human TRPM5; assay: Whole-cell electrophysiological recording of TRPM5 current; settings: 10 μM compound
Procedure: Standard whole-cell recordings were obtained from […] cells stably transfected with human TRPM5. Internal solution contained 135 mM CsGlutamate, 10 mM HEPES, 2 mM MgATP, 5 mM CaCl2 and 10 mM EGTA. External solution was HBSS (Gibco) buffered with 20 mM HEPES to pH 7.2. Currents were recorded with Multiclamp 700B amplifier using PClamp software; filtered at 1 kHz, sampled at 5 kHz. Holding potential was −80 mV. TRPM5 current in a single was activated by intracellular calcium dialysis (free calcium) and sampled with 200 ms ramps from −80 to 80 mV at 1 Hz. Current amplitudes were measured at −80 and 80 mV and plotted versus time. […] In essence, it appears that the compound makes the TRPM5 responsive lower or weaker Ca++ signals than is normally the case.

[5] = tested on: non-transfected, sham HEK cells; assay: Whole-cell electrophysiological recording in sham cells

| SMILES | inhibition at 10 µM (human TRPM5 [1]) [%] | effect on TRPM5 activity (FIG. 3) (human TRPM5 [1]; 1, 3, 10 and 30 μM compound) | TRPM5 current stimulation by compound (human TRPM5 [4]; 30 μm calcium) | TRPM5 current in response to compound (human TRPM5 [4]; +80 mV, calcium 300 nm) [nA] | TRPM5 current activation by compound (human TRPM5 [4]; absence of calcium) | inhibition at 10 µM [2] [%] | inhibition at 10 µM [3] [%] | current in sham cells [5] |
| --- | --- | --- | --- | --- | --- | --- | --- | --- |
| CCOC(=O)C/N=c1\sc2ccccc2n1C [Example 1, Ethyl 2-(3-Methylbenzo[d]thiazol-2(3H)-ylideneamino)acetate] | -139 | – | – | – | – | 10 | -18 | – |
| CCn1c(C)nc([N+](=O)[O-])c1Sc1ccc(Cl)cn1 [Example 8, 1-Ethyl-2-methyl-4-nitro-5-(5-chloropyridin-2-ylthio)imidazole] | -76 | selective enhancement | – | – | – | 7 | -22 | – |
| C=CCNC(=S)/N=c1\sc2ccccc2n1C [Example 10, 1-Allyl-3-(3-methylbenzo[d]thiazol-2-(3H)-ylidene)thiourea] | -73 | – | further stimulation | > 5 | no current activation | 1 | 0 | no significant current |
| N=c1sccn1CC(=O)c1cccc([N+](=O)[O-])c1 [Example 11, 2-(2-Iminothiazol-3(2H)-yl)-1-(3-nitrophenyl)ethanone] | -68 | – | – | – | – | 21 | -12 | – |
| CCc1nnc2nc(-c3ccc(Cl)c([N+](=O)[O-])c3)[nH]n12 [Example 4, 6-(4-Chloro-3-nitrophenyl)-3-ethyl-5H-[1,2,4]triazolo[4,3-b][1,2,4]triazole] | -101 | – | – | – | – | -32 | 13 | – |
| Cn1nc(C(F)(F)F)c(C(=O)Nc2ccc(C(F)(F)F)cc2)c1Cl [Example 17, 5-Chloro-1-methyl-3-(trifluoromethyl)-N-(4-(trifluoromethyl)phenyl)-1H-pyrazole-4-carboxamide] | -16 | – | – | – | – | -25 | 4 | – |
| COc1cccc(OC)c1OCCSc1nc2ccccc2n1CCO [Example 7, 2-(2-(2-(2,6-Dimethoxyphenoxy)ethylthio)-1H-benzimidazol-1-yl)ethanol] | -95 | – | – | – | – | -4 | -15 | – |

The next lines start with results.

| inhibition at 10 µM (human TRPM5 [1]) [%] | effect on TRPM5 activity (FIG. 3) (human TRPM5 [1]; 1, 3, 10 and 30 μM compound) | TRPM5 current stimulation by compound (human TRPM5 [4]; 30 μm calcium) | TRPM5 current in response to compound (human TRPM5 [4]; +80 mV, calcium 300 nm) [nA] | TRPM5 current activation by compound (human TRPM5 [4]; absence of calcium) | SMILES | inhibition at 10 µM [2] [%] | inhibition at 10 µM [3] [%] | current in sham cells [5] |
| --- | --- | --- | --- | --- | --- | --- | --- | --- |
| -113 | – | – | – | – | COC(=O)c1sccc1Oc1ccc([N+](=O)[O-])cn1 [Example 3] | 17 | 11 | – |
| -48 | – | – | – | – | O=c1sc2ccccc2c2c1ncn2-c1ccccc1 [Example 15, 1-Phenylthiochromeno[4,3-d]imidazol-4(1H)-one] | -9 | -22 | – |
| -62 | – | – | – | – | Cc1csc(-c2cn(C(C)C)c(=O)n(Cc3ccccc3)c2=O)n1 [Example 12] | 3 | -5 | – |
| -136 | – | – | – | – | COc1ccccc1OCCSc1nc2ccccc2[nH]1 [Example 2, 2-(2-(2-Methoxyphenoxy)ethylthio)-1H-benzimidazole] | -3 | 19 | – |
| -73 | – | – | – | – | CC1(C)C(c2ccccc2)=NC(c2ccccc2)=[N+]1[O-] [Example 9, 2,4-Diphenyl-5,5-dimethylimidazole-1-oxide] | 17 | -15 | – |
| -55 | – | – | – | – | CCc1ccc(-c2csc(NC(=O)c3cc(OC)cc(OC)c3)n2)cc1 [Example 14, N-(4-(4-Ethylphenyl)thiazol-2-yl)-3,5-dimethoxybenzamide] | -101 | 10 | – |
| -98 | – | – | – | – | O=C(Nc1ccccc1)N1CCCN(c2nc(-c3ccccc3)ns2)CC1 [Example 6, N-Phenyl-4-(3-phenyl-1,2,4-thiadiazol-5-yl)-1,4-diazepane-1-carboxamide] | 16 | -69 | – |
| -100 | – | – | – | – | Cc1ccc(-c2cn3ncsc3n2)cc1 [Example 5, 6-p-Tolylimidazo[2,1-b][1,3,4]thiadiazole] | 7 | 23 | – |
| -57 | – | – | – | – | COc1c(Cl)cccc1-c1cn2ccccc2n1 [Example 13, 2-(3-Chloro-2-methoxyphenyl)imidazo[1,2-a]pyridine] | -10 | 9 | – |
| -23 | – | – | – | – | CN(C)CC(=O)Nc1nc(-c2ccc(Cl)cc2)cs1 [Example 16, N-(4-(4-Chlorophenyl)thiazol-2-yl)-2-(dimethylamino)acetamide] | -9 | -25 | – |
